Test results: EP0435946B1, “METHODS FOR MODIFYING THE BINDING OF CELL ADHESION RECEPTORS” (LA JOLLA CANCER RESEARCH FOUNDATION, priority 1988, dated 1990)
Blank lines part the entries; values can stand above or below the molecule they belong to.

What was measured:
[1] = target: T1, vitronectin receptor (VNR) (Homo sapiens, UniProt P05106+P06756); test: Inhibition by Gd3+ of vitronectin receptor liposome attachment; format: binding; details: for % Inhibition VNR: 1 mM CaCl₂ and 1 mM MgCl₂
T1 construct: Vitronectin receptor was purified from human placenta; from tissue; host or cells: human placenta
T1 sequence (P06756 31-889 limits assumed): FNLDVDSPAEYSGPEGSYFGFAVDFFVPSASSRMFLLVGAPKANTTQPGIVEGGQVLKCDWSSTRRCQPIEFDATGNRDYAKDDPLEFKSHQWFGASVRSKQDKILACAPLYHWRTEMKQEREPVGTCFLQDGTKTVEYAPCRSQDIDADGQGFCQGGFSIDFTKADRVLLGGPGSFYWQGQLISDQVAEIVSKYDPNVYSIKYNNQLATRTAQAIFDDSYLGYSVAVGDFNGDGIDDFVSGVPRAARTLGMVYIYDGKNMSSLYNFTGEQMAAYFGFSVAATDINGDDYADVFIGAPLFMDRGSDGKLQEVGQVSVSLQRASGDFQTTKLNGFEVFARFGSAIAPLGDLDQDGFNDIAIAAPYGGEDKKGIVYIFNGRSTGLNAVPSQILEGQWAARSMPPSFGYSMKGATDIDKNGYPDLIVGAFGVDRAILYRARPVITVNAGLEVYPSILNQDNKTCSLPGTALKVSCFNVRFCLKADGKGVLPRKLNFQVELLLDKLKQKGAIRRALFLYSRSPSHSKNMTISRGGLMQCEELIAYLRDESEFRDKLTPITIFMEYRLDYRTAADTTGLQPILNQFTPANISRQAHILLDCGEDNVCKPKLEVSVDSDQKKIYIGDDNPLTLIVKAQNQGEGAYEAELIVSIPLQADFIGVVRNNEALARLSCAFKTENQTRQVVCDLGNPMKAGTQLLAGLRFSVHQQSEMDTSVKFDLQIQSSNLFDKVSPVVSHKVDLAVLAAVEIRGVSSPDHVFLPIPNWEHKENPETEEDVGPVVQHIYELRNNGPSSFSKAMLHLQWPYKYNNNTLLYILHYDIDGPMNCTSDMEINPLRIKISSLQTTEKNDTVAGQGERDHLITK
T1 sequence (P06756 891-1048 partner limits assumed): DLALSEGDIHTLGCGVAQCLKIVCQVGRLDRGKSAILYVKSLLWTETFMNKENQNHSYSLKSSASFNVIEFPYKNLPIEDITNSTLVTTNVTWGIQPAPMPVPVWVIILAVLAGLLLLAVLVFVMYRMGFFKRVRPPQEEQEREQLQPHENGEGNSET
T1 sequence (P05106 27-788): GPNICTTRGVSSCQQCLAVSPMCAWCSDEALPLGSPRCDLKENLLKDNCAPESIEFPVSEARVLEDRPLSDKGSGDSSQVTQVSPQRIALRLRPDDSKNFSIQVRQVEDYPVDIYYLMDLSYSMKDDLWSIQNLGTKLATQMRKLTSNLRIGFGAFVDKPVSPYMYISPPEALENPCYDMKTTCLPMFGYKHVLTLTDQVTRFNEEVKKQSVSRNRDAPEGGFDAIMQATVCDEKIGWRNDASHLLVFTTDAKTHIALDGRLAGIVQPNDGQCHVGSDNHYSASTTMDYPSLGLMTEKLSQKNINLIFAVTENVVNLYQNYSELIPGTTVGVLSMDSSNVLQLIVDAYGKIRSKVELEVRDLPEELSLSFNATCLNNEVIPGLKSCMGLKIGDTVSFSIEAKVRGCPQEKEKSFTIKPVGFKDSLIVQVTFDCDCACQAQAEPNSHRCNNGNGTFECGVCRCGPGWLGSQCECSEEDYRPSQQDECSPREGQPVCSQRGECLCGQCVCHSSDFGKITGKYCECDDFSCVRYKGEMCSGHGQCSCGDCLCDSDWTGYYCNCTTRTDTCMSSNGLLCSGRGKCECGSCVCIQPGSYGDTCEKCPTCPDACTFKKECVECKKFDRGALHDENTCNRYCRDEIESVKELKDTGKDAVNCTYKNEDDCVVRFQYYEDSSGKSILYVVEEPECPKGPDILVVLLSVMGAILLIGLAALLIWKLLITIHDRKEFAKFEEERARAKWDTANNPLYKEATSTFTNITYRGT
Description: (§1) The ability of Gd³⁺ to inhibit the binding of integrins was assayed in the liposome attachment system. Fibronectin receptor (FNR) and vitronectin receptor (VNR) liposomes were prepared by dialysis against TBS containing 1 mM CaCl₂ and 1 mM MgCl₂. Aliquots of GdCl₃ were added to the liposomes at the start of the assay. […] Such situations include binding of inflammatory cells at the site of a tissue injury caused by, for example, an ischemic episode, such as is associated with a cardiac or brain infarct.

[2] = target: T2, Fibronectin receptor (FNR) (Homo sapiens, UniProt P05556+P08648); test: Inhibition by Gd3+ of fibronectin receptor liposome attachment; format: binding; details: for % Inhibition FNR: 1 mM CaCl₂ and 1 mM MgCl₂
T2 construct: from tissue; host or cells: human placenta
T2 sequence (P08648 42-894 limits assumed): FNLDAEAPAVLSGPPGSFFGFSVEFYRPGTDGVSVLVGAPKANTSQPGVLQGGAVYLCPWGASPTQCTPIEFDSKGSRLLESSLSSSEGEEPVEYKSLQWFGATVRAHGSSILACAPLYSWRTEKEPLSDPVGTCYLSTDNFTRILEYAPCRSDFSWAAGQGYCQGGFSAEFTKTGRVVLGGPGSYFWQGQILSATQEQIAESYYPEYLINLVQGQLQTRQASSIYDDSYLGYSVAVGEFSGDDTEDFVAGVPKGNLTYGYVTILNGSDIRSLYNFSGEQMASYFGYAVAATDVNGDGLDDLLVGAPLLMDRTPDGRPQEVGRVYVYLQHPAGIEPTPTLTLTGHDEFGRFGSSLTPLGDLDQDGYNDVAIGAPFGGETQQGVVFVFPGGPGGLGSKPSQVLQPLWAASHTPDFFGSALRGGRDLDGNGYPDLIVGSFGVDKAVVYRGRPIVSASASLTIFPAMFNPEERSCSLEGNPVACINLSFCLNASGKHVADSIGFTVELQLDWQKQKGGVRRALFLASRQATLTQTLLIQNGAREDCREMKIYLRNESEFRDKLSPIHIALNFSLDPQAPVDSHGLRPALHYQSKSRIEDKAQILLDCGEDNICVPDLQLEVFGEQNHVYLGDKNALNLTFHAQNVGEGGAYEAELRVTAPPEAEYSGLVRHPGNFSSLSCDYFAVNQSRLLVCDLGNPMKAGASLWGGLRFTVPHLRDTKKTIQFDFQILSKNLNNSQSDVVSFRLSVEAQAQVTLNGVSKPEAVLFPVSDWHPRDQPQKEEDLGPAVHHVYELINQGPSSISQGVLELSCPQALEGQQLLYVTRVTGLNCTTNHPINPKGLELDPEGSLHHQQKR
T2 sequence (P08648 895-1049 partner limits assumed): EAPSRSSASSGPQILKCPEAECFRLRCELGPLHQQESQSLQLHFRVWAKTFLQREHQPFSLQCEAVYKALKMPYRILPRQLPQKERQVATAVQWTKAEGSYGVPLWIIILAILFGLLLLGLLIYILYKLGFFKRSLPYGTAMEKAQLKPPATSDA
T2 sequence (P05556 21-798): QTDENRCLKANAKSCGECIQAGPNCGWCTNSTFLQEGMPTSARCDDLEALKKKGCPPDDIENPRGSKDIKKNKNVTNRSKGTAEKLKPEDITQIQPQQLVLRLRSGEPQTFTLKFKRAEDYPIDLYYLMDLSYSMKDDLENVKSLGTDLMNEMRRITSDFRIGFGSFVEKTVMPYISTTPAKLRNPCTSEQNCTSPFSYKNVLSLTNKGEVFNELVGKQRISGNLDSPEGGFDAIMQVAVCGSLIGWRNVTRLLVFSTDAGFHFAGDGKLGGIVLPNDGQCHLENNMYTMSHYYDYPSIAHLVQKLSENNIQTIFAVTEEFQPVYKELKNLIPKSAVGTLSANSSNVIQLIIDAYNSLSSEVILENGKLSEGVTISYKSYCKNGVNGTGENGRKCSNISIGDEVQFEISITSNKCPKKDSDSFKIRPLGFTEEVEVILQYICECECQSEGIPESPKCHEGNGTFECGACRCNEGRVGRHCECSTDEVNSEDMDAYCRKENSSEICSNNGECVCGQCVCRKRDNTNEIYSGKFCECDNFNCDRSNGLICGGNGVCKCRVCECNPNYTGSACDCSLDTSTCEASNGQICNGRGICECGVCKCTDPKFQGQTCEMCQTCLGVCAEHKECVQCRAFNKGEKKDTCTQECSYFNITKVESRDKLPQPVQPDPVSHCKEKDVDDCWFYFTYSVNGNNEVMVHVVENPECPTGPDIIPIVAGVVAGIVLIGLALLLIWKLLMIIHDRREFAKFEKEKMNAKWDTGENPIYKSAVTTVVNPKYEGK
Description: as §1

[3] = target: T3, fibronectin receptor (Homo sapiens, UniProt P05556+P08648); test: Attachment of fibronectin receptor liposomes to fibronectin-coated wells in the presence of cations; format: binding; design: from tissue; host or cells: human placenta; details: for fibronectin receptor liposome attachment, result in words: compared with Ca²⁺, Ca²⁺ and Mg²⁺, or absence of Ca²⁺ or Mg²⁺; for % Attachment: cations 1 mM, percentage of control attachment in 1 mM CaCl₂ and 1 mM MgCl₂, mean and standard error, three experiments
T3 sequence (P08648 42-894 limits assumed): as the sequence (P08648 42-894 limits assumed) above
T3 sequence (P08648 895-1049 partner limits assumed): as the sequence (P08648 895-1049 partner limits assumed) above
T3 sequence (P05556 21-798): as the sequence (P05556 21-798) above
Description: The effect of cations on the binding of the fibronectin receptor to its ligand was studied by incorporating the receptor into liposomes and measuring receptor liposome attachment to a fibronectin-coated surface in the presence of various cations.
(§2) Fibronectin receptors were purified from human placenta by affinity chromatography on a 110 kDa chymotryptic fragment of fibronectin, according to the methods of Pytela et al., Cell 40:191 (1985), and Pytela et al., Meth. Enzymol. 144:475-489 (1987), with the following modifications. The 110 kDa fragment corresponds to the 120 kDa fragment described in Pytela et al. (1985), supra. […] Briefly, homogenized placental tissue was washed once with 2 volumes of cold TBS containing 1 mM CaCl₂, 1 mM MgCl₂ and 3 mM phenylmethyl sulfonyl fluoride (PMSF), centrifuged, and the pellet was extracted with 1 volume of cold TBS containing 100 mM octyl-β-D-glucopyranoside (Calbiochem, La Jolla, CA), and calcium, magnesium, and PMSF as in Pytela et al., (1985) supra. The clear extract was slowly applied at 4°C, first to a column of plain Sepharose, and then to 110 kDa fibronectin fragment-Sepharose. […] Bound receptor was eluted with the wash buffer containing 20 mM EDTA in place of calcium and magnesium. Eluted receptor was used immediately for the preparation of receptor liposomes or stored frozen. In some experiments, 1 mM MnCl₂ was substituted for CaCl₂ and MgCl₂ throughout the isolation procedure.
Aliquots of the receptor liposome preparation were mixed with the indicated cations (1 mM) and the attachment of the liposomes to microtiter wells coated with fibronectin was assayed. The results are expressed as a percentage of control attachment, which was measured in the presence of 1 mM CaCl₂ and 1 mM MgCl₂. Mean and standard error from three experiments are shown.

[4] = target: T4, Vitronectin receptor (Homo sapiens, UniProt P05106+P06756); test: Vitronectin receptor liposome attachment to vitronectin; format: binding; details: a number of liposome attachment assays
T4 construct: Vitronectin receptor was purified from human placenta; from tissue; host or cells: human placenta
T4 sequence (P06756 31-889 limits assumed): as the sequence (P06756 31-889 limits assumed) above
T4 sequence (P06756 891-1048 partner limits assumed): as the sequence (P06756 891-1048 partner limits assumed) above
T4 sequence (P05106 27-788): as the sequence (P05106 27-788) above
Description: Vitronectin receptor was purified from human placenta as described in Example I for the fibronectin receptor, but a different affinity matrix containing the peptide Gly-Arg-Gly-Asp-Ser-Pro-Lys was employed. The peptide was synthesized with an Applied Biosystems Model 430A, according to the manufacturer's instructions. Vitronectin receptor was isolated according to the method of Example I in the presence of 1 mM Ca²⁺ and 1mM Mg²⁺ or in 1 mM Ca²⁺ alone. In a number of liposome attachment assays, Mn²⁺ enhanced the binding of this integrin to vitronectin by 20-50% over the binding measured in Ca²⁺ and Mg²⁺.

[5] = target: T3, fibronectin receptor; details: Mn²⁺ versus Ca²⁺/Mg²⁺
[6] = test system: Type I collagen receptor; test: Type I collagen receptor liposome binding to collagen; design: species or system human
Description: Type I collagen receptor was also isolated from placenta, employing the method given in Example I with the following modifications. Mn²⁺ was used in the chromatography buffers for this procedure, and the affinity matrix contained Type I collagen.

[7] = test system: A375M cells
[8] = target: T3, fibronectin receptor; test: Yield of fibronectin receptor from affinity chromatography on 110 kDa fibronectin fragment, densitometry of SDS-PAGE; design: from tissue; host or cells: human placenta
Description: as §2
Fibronectin receptor can be isolated by affinity chromatography on the 110 kDa fibronectin fragment (See Pytela, et al., (1985), (1987), supra). […]

[9] = target: T3, fibronectin receptor; test: Attachment of fibronectin receptor liposomes to fibronectin-coated wells in the presence of cations; format: binding; design: from tissue; host or cells: human placenta; details: for binding of fibronectin receptor liposomes to fibronectin, multiple of binding measured in Ca²⁺ alone: in 1mM Ca²⁺; for binding of fibronectin receptor liposomes to fibronectin, multiple of binding measured in Ca²⁺ alone / binding of fibronectin receptor liposomes to fibronectin, multiple of binding measured in Mg²⁺ alone: mean and standard error, two experiments; for binding of fibronectin receptor liposomes to fibronectin, multiple of binding measured in Mg²⁺ alone: in 1mM Mg²⁺
[10] = test system: A375M cells; test: In vitro wound model of cell migration on ligand-coated cell-free lanes; format: cell-based, human; details: 100 µM MnCl₂ in media with Ca²⁺ and Mg²⁺; spaces coated with fibronectin and Type IV collagen; versus controls
Description: An in vitro wounding assay was developed to test the effects of Mn²⁺ on cell migration into a wounded (cell free) area that was coated with various adhesion proteins. This assay allowed the determination of the specific ligands and the respective receptors that are involved in the migration process. More specifically, this assay was used to test cell migration on various substrates in the presence of Mn²⁺. A375M cells were grown to confluency in 6 well culture dishes (Corning, New York, NY). A specially designed comb which scratches out 4-2mm wide lanes was used to make a crossing pattern in the cell layer, removing the cells. The cell-free lanes were then coated for 1 hour at 37°C with one of the following ligands: fibronectin, vitronectin, Type I or Type IV collagen, bovine serum albumin or laminin. These proteins were dissolved in PBS at a concentration of 10µg/ml and then added directly to the wounded cell layer.
Standard Culture Media containing Ca²⁺ and Mg²⁺ and 100 µM MnCl₂ was added to the culture dishes while control dishes had the same media without Mn²⁺. Cell migration was monitored by visualization.

- % Inhibition VNR ([1]; Gd³⁺ 0.1 mM): 0%
- % Inhibition VNR ([1]; Gd³⁺ 0.3 mM): 59%
- % Inhibition VNR ([1]; Gd³⁺ 1 mM): 93%
- % Inhibition VNR ([1]; Gd³⁺ 3 mM): 100%
- attachment of vitronectin receptor to its ligand, result in words ([1]; concentrations above 0.3 mM): significant decrease in attachment
- % Inhibition FNR ([2]; Gd³⁺ 0.1 mM): 8%
- % Inhibition FNR ([2]; Gd³⁺ 0.3 mM): 61%
- % Inhibition FNR ([2]; Gd³⁺ 1 mM): 91%
- % Inhibition FNR ([2]; Gd³⁺ 3 mM): 87%
- attachment of fibronectin receptor to its ligand, result in words ([2]; concentrations above 0.3 mM): significant decrease in attachment
Structure (SMILES): [Cl][Gd]([Cl])[Cl] [Gd³⁺, GdCl₃]
- fibronectin receptor liposome attachment, result in words [3]: produced increased attachment above that found in the absence of Ca²⁺ or Mg²⁺ in at least one experiment

Structure (SMILES): [Sr+2] [Sr²⁺]
- fibronectin receptor liposome attachment, result in words [3]: produced increased attachment above that found in the absence of Ca²⁺ or Mg²⁺ in at least one experiment

Structure (SMILES): [Cu+2] [Cu²⁺]
- fibronectin receptor liposome attachment, result in words [3]: produced increased attachment above that found in the absence of Ca²⁺ or Mg²⁺ in at least one experiment

Structure (SMILES): [Cl][Mn][Cl] [Mn²⁺, MnCl₂]
- enhancement of binding to vitronectin over the binding measured in Ca²⁺ and Mg²⁺ [4]: 20-50%
- factor of increase of the relative affinity of the receptor for the fragment ([5]; ligand 110 kDa fibronectin fragment): 4.5
- factor of increase of the relative receptor affinity for the peptide ([5]; ligand GRGDSP): 50
- binding of Type I collagen receptor liposomes to collagen, result in words [6]: clear and specific binding to collagen
- increase in invasion / migration of cells ([7]; 100 µM MnCl₂, after 72 hours): 30%
- effect on cell viability and migration ([7]; concentrations higher than 100 µM): cell viability is affected and therefore migration is reduced
- % Attachment [3]: 210 ± 29%
- binding of receptor isolated with Mn²⁺ in the liposome attachment assay, Mn²⁺ versus Ca²⁺/Mg²⁺ ([3]; receptor isolated with Mn²⁺): several times higher
- yield of receptor with Mn²⁺ relative to Ca²⁺ and Mg²⁺ ([8]; 1 mM Mn²⁺ substituted for Ca²⁺/Mg²⁺, estimated by densitometry): four-fold higher
- Receptor Peak Area ([8]; cations 1 mM in chromatography buffers, Coomassie blue gels scanned): 18.2
- binding of fibronectin receptor liposomes to fibronectin, multiple of binding measured in Ca²⁺ alone ([9]; 0.01 mM Mn²⁺ added): 1.23 ± 0.66
- binding of fibronectin receptor liposomes to fibronectin, multiple of binding measured in Mg²⁺ alone ([9]; 0.01 mM Mn²⁺ added): 0.97 ± 0.17
- binding of fibronectin receptor liposomes to fibronectin, multiple of binding measured in Ca²⁺ alone ([9]; 0.1mM Mn²⁺ added): 4.41 ± 0.33
- binding of fibronectin receptor liposomes to fibronectin, multiple of binding measured in Mg²⁺ alone ([9]; 0.1mM Mn²⁺ added): 2.04 ± 0.08
- binding of fibronectin receptor liposomes to fibronectin, multiple of binding measured in Ca²⁺ alone ([9]; 1 mM Mn²⁺ added): 5.78 ± 0.47
- binding of fibronectin receptor liposomes to fibronectin, multiple of binding measured in Mg²⁺ alone ([9]; 1 mM Mn²⁺ added): 3.12 ± 0.10
- concentration at which liposome attachment was promoted (as low as) ([9]; cation titration, Figure 1): 3 µM
- migration into cell-free spaces, result in words [10]: augmented migration

Structure (SMILES): [Co+2] [Co²⁺]
- % Attachment [3]: 150 ± 13%
- fibronectin receptor liposome attachment, result in words [3]: increased the percentage of attachment above that obtained in the presence of Ca²⁺ and Mg²⁺

- % Attachment [3]: 75 ± 10%
Structure (SMILES): [Ca+2].[Cl-].[Cl-] [Ca²⁺, CaCl₂, reference compound]

Structure (SMILES): [La+3] [La³⁺]
- fibronectin receptor liposome attachment, result in words [3]: produced increased attachment above that found in the absence of Ca²⁺ or Mg²⁺ in at least one experiment

Structure (SMILES): [Cd+2] [Cd²⁺]
- % Attachment [3]: 130 ± 30%
- fibronectin receptor liposome attachment, result in words [3]: increased the percentage of attachment above that obtained in the presence of Ca²⁺ and Mg²⁺

- attachment, % of the control value ([3]; one similar assay): 128%
Structure (SMILES): [Zn+2] [Zn²⁺]

Structure (SMILES): [Fe+2] [Fe²⁺]
- fibronectin receptor liposome attachment, result in words [3]: produced less attachment than Ca²⁺, but did support fibronectin receptor attachment above the level found in the absence of either Ca²⁺ or Mg²⁺

Structure (SMILES): [Be+2] [Be²⁺]
- fibronectin receptor liposome attachment, result in words [3]: produced less attachment than Ca²⁺, but did support fibronectin receptor attachment above the level found in the absence of either Ca²⁺ or Mg²⁺

Structure (SMILES): [Ni+2] [Ni²⁺]
- % Attachment [3]: 100 ± 12%
- fibronectin receptor liposome attachment, result in words [3]: as effective as the combination of Ca²⁺ and Mg²⁺

Structure (SMILES): [Ba+2] [Ba²⁺]
- fibronectin receptor liposome attachment, result in words [3]: produced less attachment than Ca²⁺, but did support fibronectin receptor attachment above the level found in the absence of either Ca²⁺ or Mg²⁺

- % Attachment [3]: 110 ± 5%
Structure (SMILES): [Cl-].[Cl-].[Mg+2] [Mg²⁺, MgCl₂, reference compound]
